Experimental data reported in US12673947B2 (Cytosinlab Therapeutics Co., Ltd., priority 2020, dated 2026).

Tests used:
MV4;11 cells = assay: MV4;11 in vitro inhibition of proliferation assay (CellTiter-Glo, 72 hours); type: cell-based; conditions: Homo sapiens, MV4-11, 72 h, IC50 class, read-out: Inhibitory activity of cell proliferation MV4;11
Text: Biological Test Example 2: MV4;11 In Vitro Inhibition of Proliferation Assay
The MV4;11 cell lines were purchased from the cell bank of the Chinese Academy of Sciences, IMDM medium (Gibco, catalog number 12440), fetal bovine serum (Gibco, catalog number 10099141C), penicillin-streptomycin antibiotics (Gibco, catalog number 15140122), DMSO (Sigma, catalog number D2650), Celltiter-Glo kit (CTG) (Promega, catalog number G7573), 384-well clear flat-bottom black cell culture plate (Corning, catalog number 3764), D300e digital dispenser (Tecan, catalog number D300e), SpectraMax i3x microplate reader (MOLECULAR DEVICES, catalog number i3x)
MV4;11 cell was cultivated in IMDM, 10% fetal bovine serum, 1% penicillin-streptomycin antibiotics, and cell density was kept less than 1.0*10E6 cells per ml to ensure that it was always in logarithmic growth phase. Cell viability was greater than 95%.
The compounds to be tested was diluted by 3 times from 10 uM with DMSO to 9 concentrations. 60 nl diluted compound was added to the cell culture plate and three duplicates were set up.
The prepared MV4;11 cell suspension was added to the 384-well plate, and 20 microliters of cell suspension was added per well, i.e., each well contained 2000 MV4;11 cells, of which the final concentration of DMSO was 0.3%. The cell culture plate was placed in 37° C. and incubated in a 5% carbon dioxide incubator for 72 hours.
20 μL of Promega CellTiter-Glo reagent was added to per well, and the plate was incubated at room temperature for 10 minutes when the luminescence signals were stable. SpectraMax i3x microplate reader was used to read signals.
The original data was converted into inhibition rate, and the IC50 value (half inhibition concentration) of the compound was determined by fitting the nonlinear four-parameter curve.

FLT3 = biological target: T1, FLT3 (Homo sapiens, UniProt P36888); assay: FLT3 kinase in vitro inhibitory activity experiment (Caliper mobility shift, conversion rate); type: biochemical; conditions: IC50 class, read-out: Enzyme activity FLT3
T1 construct: purchased Carna 08-145
T1 sequence (P36888 27-993): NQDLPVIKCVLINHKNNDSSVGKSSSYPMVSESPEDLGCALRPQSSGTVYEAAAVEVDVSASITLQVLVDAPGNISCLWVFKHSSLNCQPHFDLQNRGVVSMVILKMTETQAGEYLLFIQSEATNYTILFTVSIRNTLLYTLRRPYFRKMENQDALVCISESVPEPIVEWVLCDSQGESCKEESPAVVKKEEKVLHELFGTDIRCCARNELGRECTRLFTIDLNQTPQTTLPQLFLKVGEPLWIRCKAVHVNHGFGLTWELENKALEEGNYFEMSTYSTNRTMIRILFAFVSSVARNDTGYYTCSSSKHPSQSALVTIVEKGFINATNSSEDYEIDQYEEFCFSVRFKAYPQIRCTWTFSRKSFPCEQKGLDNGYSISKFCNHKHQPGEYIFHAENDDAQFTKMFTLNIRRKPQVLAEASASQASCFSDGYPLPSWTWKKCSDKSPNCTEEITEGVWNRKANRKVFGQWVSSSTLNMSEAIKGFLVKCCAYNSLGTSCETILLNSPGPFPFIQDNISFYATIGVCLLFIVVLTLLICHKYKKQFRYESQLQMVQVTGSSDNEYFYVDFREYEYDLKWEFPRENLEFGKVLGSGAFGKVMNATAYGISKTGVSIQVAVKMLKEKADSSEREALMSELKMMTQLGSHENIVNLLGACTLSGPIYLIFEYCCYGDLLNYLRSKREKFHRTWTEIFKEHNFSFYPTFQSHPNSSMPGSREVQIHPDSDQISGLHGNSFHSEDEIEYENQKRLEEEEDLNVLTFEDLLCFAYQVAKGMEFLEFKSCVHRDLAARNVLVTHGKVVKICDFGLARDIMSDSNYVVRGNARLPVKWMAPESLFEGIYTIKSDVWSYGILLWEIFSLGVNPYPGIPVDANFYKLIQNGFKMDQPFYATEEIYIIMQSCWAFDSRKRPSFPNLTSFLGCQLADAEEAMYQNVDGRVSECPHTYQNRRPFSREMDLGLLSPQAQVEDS
Procedure: Biological Test Example 1: FLT3 Kinase In Vitro Inhibitory Activity Experiment
Centrifuge (manufacturer: Eppendorf, model: 5430), microplate reader (manufacturer: Perkin Elmer, model: Caliper EZ Reader II), Echo 550 (manufacturer: Labcyte, model: Echo 550)
1. Kinase Reaction Process
• (1) 1×Kinase buffer was prepared. • (2) Preparation of the serial compound dilutions: the initial stock (the concentration of the tested compound was 1 μM) was diluted by 3-fold into 10 concentrations, and was single-well detected. The compounds were series diluted to solutions of 10 different concentration (100-folds final concentration) in 384-well plates. 250 nl of solution was transferred to each well of 384-well plate by Echo550. 100% DMSO (250 nl) was added to negative control wells and positive control wells respectively. • (3) Kinase solution (2.5 times final concentration) was prepared with 1×Kinase buffer. • (4) 10 μL of kinase solution (2.5 times final concentration) was added to compound wells and positive control wells respectively: 1×Kinase buffer (10 μL) was added to the negative control wells. • (5) The solution was centrifuged at 1000 rpm for 30 seconds, shaked and mixed, and incubated at room temperature for 10 minutes. • (6) The mixed solution of ATP and Kinase substrate 2 (25/15 times final concentration) was prepared with 1×Kinase buffer. • (7) 15 μL of mixed solution ATP and Kinase substrate 2 (25/15 times final concentration) was added to initiated the reaction. • (8) 384 well plate was centrifuged at 1000 rpm for 30 seconds, shaked and mixed, then incubated at room temperature for 30 minutes. • (9) Stop solution (30 μL) was added to stop kinase reaction, and the solution was centrifuged at 1000 rpm for 30 seconds, shaked and mixed. • (10) The conversion rate was read with Caliper EZ Reader II. 2. Data Analysis Formula for Calculation
Wherein: Conversion %_sample is the reading of the sample conversion; Conversion %_min: negative control well.

| IC50 (MV4;11 cells) [nM] | IC50 (FLT3) [nM] | SMILES |
| --- | --- | --- |
| ≤ 10 | ≤ 10 | CCc1nc2c(N)ncc(-c3cnn(C4CCN(c5ccnc(C)c5)CC4)c3)c2nc1N[C@@H]1CC[C@H](O)C1 [Compound 171] |
| 10 to 100 | ≤ 10 | CCc1nc2c(N)ncc(-c3cnn(CC(C)(C)O)c3)c2nc1N[C@@H]1CC[C@H](O)C1 [Compound 197] |
| ≤ 10 | ≤ 10 | CCc1nc2c(N)ncc(-c3cnn(-c4ccc(C)nc4)c3)c2nc1N[C@@H]1CC[C@H](O)C1 [Compound 177, (1S,3R)-3-((5-amino-3-ethyl-8-(1-(6-methylpyridin-3-yl)-1H-pyrazol-4-yl)pyridino[3,4-b]pyrazin-2-yl)amino)cyclopentan-1-ol] |
| 10 to 100 | ≤ 10 | CCc1nc2c(N)ncc(-c3cnn(-c4ccc(Cl)cc4)c3)c2nc1N[C@@H]1CC[C@H](O)C1 [Compound 291] |
| 10 to 100 | ≤ 10 | CCc1nc2c(N)ncc(-c3cnn(CCO)c3)c2nc1N[C@@H]1CC[C@H](O)C1 [Compound 198] |
| ≤ 10 | ≤ 10 | CCc1nc2c(N)ncc(-c3cnn(-c4cccnc4)c3)c2nc1N[C@@H]1CC[C@H](O)C1 [Compound 302] |
| ≤ 10 | ≤ 10 | CCc1nc2c(N)ncc(-c3cnn(-c4ncc(C#N)cn4)c3)c2nc1N[C@@H]1CC[C@H](O)C1 [Compound 335] |
| 10 to 100 | ≤ 10 | CCc1nc2c(N)ncc(-c3cnn(-c4ccc(F)c(F)c4)c3)c2nc1N[C@@H]1CC[C@H](O)C1 [Compound 342] |
| 10 to 100 | ≤ 10 | CCc1nc2c(N)ncc(-c3cnn(-c4ccc(C(C)(C)O)nc4)c3)c2nc1NC1CCOCC1 [Compound 347] |
| 10 to 100 | ≤ 10 | CCc1nc2c(N)ncc(-c3cnn(-c4cccc(C)n4)c3)c2nc1N[C@@H]1CC[C@H](O)C1 [Compound 271] |
| ≤ 10 | ≤ 10 | CCc1nc2c(N)ncc(-c3cnn(C)c3)c2nc1N[C@@H]1CC[C@H](O)C1 [Compound 194] |
| 10 to 100 | ≤ 10 | CCc1nc2c(N)ncc(-c3cnn(-c4ccnc(C(F)(F)F)n4)c3)c2nc1N[C@@H]1CC[C@H](O)C1 [Compound 274] |
| 10 to 100 | ≤ 10 | CCc1nc2c(N)ncc(-c3cnn(C4CCc5cc(F)cc(F)c5CC4)c3)c2nc1N[C@@H]1CC[C@H](O)C1 (some centres unmarked) [Compound 283] |
| 10 to 100 | ≤ 10 | CCc1nc2c(N)ncc(-c3cnn(-c4ncc(C(C)(C)O)cn4)c3)c2nc1N[C@@H]1CC[C@H](O)C1 [Compound 330] |
| ≤ 10 |  | CCc1nc2c(N)ncc(-c3cnn(-c4ccc(C#N)cn4)c3)c2nc1N[C@@H]1CC[C@H](O)C1 [Compound 300] |

Further lines, the compound ahead of its results:

| SMILES | IC50 (MV4;11 cells) [nM] | IC50 (FLT3) [nM] |
| --- | --- | --- |
| CCc1nc2c(N)ncc(-c3ccc(N4CCC(N5CCN(C)CC5)CC4)c(OC)c3)c2nc1NC1CCCC1O (centres unmarked) [Compound 78] | 10 to 100 | ≤ 10 |
| CCc1nc2c(N)ncc(-c3cnn(C4CCNCC4)c3)c2nc1NC1CCC(O)C1 (centres unmarked) [Compound 206] | 10 to 100 | ≤ 10 |
| CCc1nc2c(N)ncc(-c3cnn(C4CCN(C(=O)OC(C)(C)C)CC4)c3)c2nc1N[C@@H]1CC[C@H](O)C1 [Compound 190] | ≤ 10 | ≤ 10 |
| CCc1nc2c(N)ncc(-c3ccc(N4CCC(N5CCC(C)(O)CC5)CC4)c(OC)c3)c2nc1NC1CCOCC1 [Compound 328] | 10 to 100 | ≤ 10 |
| CCc1nc2c(N)ncc(-c3ccc(N4CCC(N5CCN(C)CC5)CC4)nc3)c2nc1NC1CCOCC1 [Compound 21] | 100 to 500 | 10 to 100 |
| CCc1nc2c(Cl)ncc(-c3ccc(N4CCC(N5CCNCC5)CC4)c(OC)c3)c2nc1NC1CCOCC1 [Compound 11] | > 500 | 10 to 100 |
| CCc1nc2c(N)ncc(-c3ccc(N4CCC(N5CCN(C)CC5)CC4)c(OCCOC)c3)c2nc1NC1CCOCC1 [Compound 23] | 10 to 100 | ≤ 10 |
| CCc1nc2c(N)ncc(-c3cnn(C4CCC(C)(O)CC4)c3)c2nc1N[C@@H]1CC[C@H](O)C1 (single isomer, unassigned) [Compound 284] | ≤ 10 | ≤ 10 |
| CCc1nc2c(N)ncc(-c3cnn(C4CCN(C(C)C)CC4)c3)c2nc1N[C@@H]1CC[C@H](O)C1 [Compound 217] | ≤ 10 | ≤ 10 |
| CCc1nc2c(N)ncc(-c3ccc(N4CCC(N5CCCN(C)CC5)CC4)c(OC)c3)c2nc1NC1CCOCC1 [Compound 314] | 10 to 100 | 10 to 100 |
| CCc1nc2c(N)ncc(-c3cnn(C4CCN(C(CC)CC)CC4)c3)c2nc1N[C@@H]1CC[C@H](O)C1 [Compound 184] | ≤ 10 | ≤ 10 |
| CCc1nc2c(N)ncc(-c3cnn(C4CCN(S(=O)(=O)CC(C)C)CC4)c3)c2nc1N[C@@H]1CC[C@H](O)C1 [Compound 188] | ≤ 10 | ≤ 10 |
| CCc1nc2c(N)ncc(-c3cnn(C4CCN(C5CCN(CCOC)CC5)CC4)c3)c2nc1NC1CCOCC1 [Compound 240] | 10 to 100 | ≤ 10 |
| [2H]C([2H])([2H])C([2H])(N1CCC(n2cc(-c3cnc(N)c4nc(CC)c(N[C@@H]5CC[C@H](O)C5)nc34)cn2)CC1)C([2H])([2H])[2H] [Compound 222] | ≤ 10 | ≤ 10 |
| CCc1nc2c(N)ncc(-c3cccc(CN4CCC(N5CCN(C)CC5)CC4)c3)c2nc1NC1CCOCC1 [Compound 43, 3-ethyl-8-(3-((4-(4-methylpiperazine-1-yl)piperidine-1-yl)methyl)phenyl)-N2-(tetrahydro-2H-pyran-4-yl)pyrido[3,4-b]pyrazine-2,5-diamine] | 100 to 500 | 10 to 100 |
| CCc1nc2c(N)ncc(-c3cnn(CC4CCN(C)CC4)c3)c2nc1N[C@@H]1CC[C@H](O)C1 [Compound 204] | ≤ 10 | ≤ 10 |
| CCc1nc2c(N)ncc(-c3cnn(C4CCN(S(C)(=O)=O)CC4)c3)c2nc1N[C@@H]1CC[C@H](O)C1 [Compound 186] | ≤ 10 | ≤ 10 |
| CCc1nc2c(N)ncc(-c3cnn(C4CCOCC4)c3)c2nc1N[C@@H]1CC[C@H](O)C1 [Compound 191] | ≤ 10 |  |
| CCc1nc2c(N)ncc(-c3ccc(N4CCC(N5CCN(C)CC5)CC4)c(OC)c3)c2nc1NC1CCC(O)CC1 (centres unmarked) [Compound 82] | 10 to 100 |  |
